Assay results published in patent US20060069132A1, “Azolecarboxamide herbicides” (priority 2004, published 2006).

Experiments:
[1] = test system: barnyardgrass; assay: Test B pre-/postemergence herbicide test; type: in vivo, Echinochloa crus-galli; conditions: for Plant response rating, Barnyardgrass: preemergence; for Barnyardgrass plant response rating: postemergence, visual rating, scale 0 (no effect) to 100 (complete control)
In short: (§1)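 Greenhouse pot assay with simultaneous preemergence (treated seed) and postemergence (2–18 cm seedlings) applications of surfactant-containing, non-phytotoxic solvent formulations. Response scored visually 13–15 days later on a 0–100 scale, 100 meaning complete control.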

[2] = test system: Surinam grass; assay: Test B pre-/postemergence herbicide test; type: in vivo, Urochloa decumbens; conditions: for Plant response rating, Surinam Grass: preemergence; for Surinam Grass plant response rating: postemergence, visual rating, scale 0 (no effect) to 100 (complete control)
In short: (§2)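 Pre: seeds sown, then sprayed. Post: 1–4-leaf plants (2–18 cm) sprayed at the same time. Paddy: flooded, treated at 2-leaf stage. Formulation: non-phytotoxic solvent with surfactant. Greenhouse 13–15 days; visual 0–100 score relative to controls.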

[3] = test system: cocklebur; assay: Test B pre-/postemergence herbicide test; type: in vivo, Xanthium strumarium; conditions: for Plant response rating, Cocklebur: preemergence; for Cocklebur plant response rating: postemergence, visual rating, scale 0 (no effect) to 100 (complete control)
In short: as §1

[4] = test system: corn; assay: Test B pre-/postemergence herbicide test; type: in vivo, Zea mays; conditions: for Plant response rating, Corn: preemergence; for Corn plant response rating: postemergence, visual rating, scale 0 (no effect) to 100 (complete control)
In short: as §2

[5] = test system: large crabgrass; assay: Test B pre-/postemergence herbicide test; type: in vivo, Digitaria sanguinalis; conditions: for Plant response rating, Crabgrass, Large: preemergence; for Crabgrass, Large plant response rating: postemergence, visual rating, scale 0 (no effect) to 100 (complete control)
In short: as §2

[6] = test system: giant foxtail; assay: Test B pre-/postemergence herbicide test; type: in vivo, Setaria faberi; conditions: for Plant response rating, Foxtail, Giant: preemergence; for Foxtail, Giant plant response rating: postemergence, visual rating, scale 0 (no effect) to 100 (complete control)
In short: as §2

[7] = test system: lambsquarters; assay: Test B pre-/postemergence herbicide test; type: in vivo, Chenopodium album; conditions: for Plant response rating, Lambsquarters: preemergence; for Lambsquarters plant response rating: postemergence, visual rating, scale 0 (no effect) to 100 (complete control)
In short: as §2

[8] = test system: morningglory; assay: Test B pre-/postemergence herbicide test; type: in vivo, Ipomoea coccinea; conditions: for Plant response rating, Morningglory: preemergence; for Morningglory plant response rating: postemergence, visual rating, scale 0 (no effect) to 100 (complete control)
In short: as §1

[9] = test system: pigweed; assay: Test B pre-/postemergence herbicide test; type: in vivo, Amaranthus retroflexus; conditions: for Plant response rating, Pigweed: preemergence; for Pigweed plant response rating: postemergence, visual rating, scale 0 (no effect) to 100 (complete control)
In short: as §2

[10] = test system: velvetleaf; assay: Test B pre-/postemergence herbicide test; type: in vivo, Abutilon theophrasti; conditions: for Plant response rating, Velvetleaf: preemergence; for Velvetleaf plant response rating: postemergence, visual rating, scale 0 (no effect) to 100 (complete control)
In short: as §2

[11] = test system: wheat; assay: Test B postemergence herbicide test; type: in vivo, Triticum aestivum; design: key to Wheat plant response rating: 0 = no effect, 100 = complete control; conditions: postemergence, visual rating, scale 0 (no effect) to 100 (complete control)
In short: (§3)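 Postemergence plants were sprayed with formulated test chemicals at 2 to 18 cm height (1- to 4-leaf stage); paddy species were grown to the 2-leaf stage. After 13 to 15 days in a greenhouse, injury was rated visually against untreated controls on a 0–100 scale (0 = no effect, 100 = complete control).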

[12] = test system: wild oat; assay: Test B postemergence herbicide test; type: in vivo, Avena fatua; conditions: postemergence, visual rating, scale 0 (no effect) to 100 (complete control)
In short: as §3

[13] = test system: rice; assay: Test B flooded paddy test; type: in vivo, Oryza sativa; conditions: 1000 g ai/ha, visual rating, scale 0 to 100 (0 no effect, 100 complete control), 13 to 15 days
In short: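 Plants grow to 1- to 4-leaf stage (2–18 cm) for postemergence spraying, or to 2-leaf stage for the paddy test. Formulated compound is applied. Greenhouse holding lasts 13–15 days. Response is scored visually relative to controls, 0 no effect to 100 complete control; a dash means no result.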

[14] = test system: small flower umbrella sedge; assay: Test B flooded paddy test; type: in vivo, Cyperus difformis; conditions: 1000 g ai/ha, visual rating, scale 0 to 100 (0 no effect, 100 complete control), 13 to 15 days
In short: (§4)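 Greenhouse test; postemergence application to plants at 1–4 leaves (2–18 cm); paddy species at 2 leaves; evaluated visually vs controls at 13–15 days; scale 0–100 (100 = complete control).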

[15] = test system: barnyardgrass; assay: Test B flooded paddy test; type: in vivo, Echinochloa crus-galli; conditions: 1000 g ai/ha, visual rating, scale 0 to 100 (0 no effect, 100 complete control), 13 to 15 days
In short: as §4

[16] = 500 g ai/ha, visual rating 0-100, 0 no effect, 100 complete control
[17] = 125 g ai/ha, 0 to 100 scale, 0 is no effect, 100 is complete control

CCn1nc(C(C)(C)C)cc1C(=O)Nc1cccc(SC)c1 [Compound 131]
Plant response rating, Barnyardgrass [1, 16]: 90
Barnyardgrass plant response rating ([1]; 125 g ai/ha): 10
Barnyardgrass plant response rating ([1]; 500 g ai/ha): 50
Plant response rating, Barnyardgrass [1, 17]: 70
Plant response rating, Surinam Grass [2, 16]: 60
Surinam Grass plant response rating ([2]; 125 g ai/ha): 20
Surinam Grass plant response rating ([2]; 500 g ai/ha): 60
Plant response rating, Surinam Grass [2, 17]: 10
Plant response rating, Cocklebur [3, 16]: 10
Cocklebur plant response rating ([3]; 125 g ai/ha): 70
Cocklebur plant response rating ([3]; 500 g ai/ha): 100
Plant response rating, Cocklebur [3, 17]: 0
Plant response rating, Corn [4, 16]: 0
Corn plant response rating ([4]; 125 g ai/ha): 20
Corn plant response rating ([4]; 500 g ai/ha): 20
Plant response rating, Corn [4, 17]: 0
Plant response rating, Crabgrass, Large [5, 16]: 100
Crabgrass, Large plant response rating ([5]; 125 g ai/ha): 20
Crabgrass, Large plant response rating ([5]; 500 g ai/ha): 30
Plant response rating, Crabgrass, Large [5, 17]: 50
Plant response rating, Foxtail, Giant [6, 16]: 70
Foxtail, Giant plant response rating ([6]; 125 g ai/ha): 20
Foxtail, Giant plant response rating ([6]; 500 g ai/ha): 30
Plant response rating, Foxtail, Giant [6, 17]: 10
Plant response rating, Lambsquarters [7, 16]: 100
Lambsquarters plant response rating ([7]; 125 g ai/ha): 80
Lambsquarters plant response rating ([7]; 500 g ai/ha): 90
Plant response rating, Lambsquarters [7, 17]: 100
Plant response rating, Morningglory [8, 16]: 30
Morningglory plant response rating ([8]; 125 g ai/ha): 20
Morningglory plant response rating ([8]; 500 g ai/ha): 60
Plant response rating, Morningglory [8, 17]: 10
Plant response rating, Pigweed [9, 16]: 100
Pigweed plant response rating ([9]; 125 g ai/ha): 30
Pigweed plant response rating ([9]; 500 g ai/ha): 60
Plant response rating, Pigweed [9, 17]: 100
Plant response rating, Velvetleaf [10, 16]: 100
Velvetleaf plant response rating ([10]; 125 g ai/ha): 10
Velvetleaf plant response rating ([10]; 500 g ai/ha): 40
Plant response rating, Velvetleaf [10, 17]: 50
Wheat plant response rating ([11]; 125 g ai/ha): 10
Wheat plant response rating ([11]; 500 g ai/ha): 20
Oat, Wild plant response rating ([12]; 125 g ai/ha): 20
Oat, Wild plant response rating ([12]; 500 g ai/ha): 20
Rice plant response rating [13]: 60
Sedge, Umbrella plant response rating [14]: 80
Barnyardgrass plant response rating [15]: 70

CCn1nc(C(C)(C)C)cc1C(=O)Nc1cccc(C(N)=O)n1 [Compound 162, 6-[[[3-(1,1-dimethylethyl)-1-ethyl-1H-pyrazol-5-yl]carbonyl]amino]-2-pyridinecarboxamide]
Plant response rating, Barnyardgrass [1, 16]: 100
Barnyardgrass plant response rating ([1]; 125 g ai/ha): 0
Barnyardgrass plant response rating ([1]; 500 g ai/ha): 30
Plant response rating, Barnyardgrass [1, 17]: 100
Plant response rating, Surinam Grass [2, 16]: 100
Surinam Grass plant response rating ([2]; 125 g ai/ha): 0
Surinam Grass plant response rating ([2]; 500 g ai/ha): 40
Plant response rating, Surinam Grass [2, 17]: 90
Plant response rating, Cocklebur [3, 16]: 90
Cocklebur plant response rating ([3]; 125 g ai/ha): 10
Cocklebur plant response rating ([3]; 500 g ai/ha): 60
Plant response rating, Cocklebur [3, 17]: 30
Plant response rating, Corn [4, 16]: 80
Corn plant response rating ([4]; 125 g ai/ha): 0
Corn plant response rating ([4]; 500 g ai/ha): 0
Plant response rating, Corn [4, 17]: 30
Plant response rating, Crabgrass, Large [5, 16]: 100
Crabgrass, Large plant response rating ([5]; 125 g ai/ha): 20
Crabgrass, Large plant response rating ([5]; 500 g ai/ha): 40
Plant response rating, Crabgrass, Large [5, 17]: 100
Plant response rating, Foxtail, Giant [6, 16]: 100
Foxtail, Giant plant response rating ([6]; 125 g ai/ha): 20
Foxtail, Giant plant response rating ([6]; 500 g ai/ha): 30
Plant response rating, Foxtail, Giant [6, 17]: 100
Plant response rating, Lambsquarters [7, 16]: 100
Lambsquarters plant response rating ([7]; 125 g ai/ha): 80
Lambsquarters plant response rating ([7]; 500 g ai/ha): 90
Plant response rating, Lambsquarters [7, 17]: 100
Plant response rating, Morningglory [8, 16]: 80
Morningglory plant response rating ([8]; 125 g ai/ha): 0
Morningglory plant response rating ([8]; 500 g ai/ha): 60
Plant response rating, Morningglory [8, 17]: 20
Plant response rating, Pigweed [9, 16]: 100
Pigweed plant response rating ([9]; 125 g ai/ha): 40
Pigweed plant response rating ([9]; 500 g ai/ha): 80
Plant response rating, Pigweed [9, 17]: 100
Plant response rating, Velvetleaf [10, 16]: 100
Velvetleaf plant response rating ([10]; 125 g ai/ha): 60
Velvetleaf plant response rating ([10]; 500 g ai/ha): 80
Plant response rating, Velvetleaf [10, 17]: 90
Wheat plant response rating ([11]; 500 g ai/ha): 10
Oat, Wild plant response rating ([12]; 125 g ai/ha): 20
Oat, Wild plant response rating ([12]; 500 g ai/ha): 40
Rice plant response rating [13]: 80
Sedge, Umbrella plant response rating [14]: 80
Barnyardgrass plant response rating [15]: 80
